Results: patent publication US20090270419A1, “COMBINATIONS OF CLASS-I SPECIFIC HISTONE DEACETYLASE INHIBITORS WITH PROTEASOME INHIBITORS” (priority 2006, published 2009)

Key:
[1] = tested on: acetylation of histone H3 and H4 and induction of p21waf1,cip1 in A2780 ovarian carcinoma cells; test: Acetylation of cellular HDAC 1 substrates and induction of p21waf1,cip1 (Western blot); assay type: cell-based, human; details: 24 h, 0-3000 nM tested
Description: Total cell lysates were prepared and analysed by SDS-PAGE. Levels of acetylated H3 and H4 histones, total level of H3 proteins and levels p21^waf1, cip1 protein were detected using appropriate dilutions of rabbit polyclonal and mouse monoclonal antibodies, followed by enhanced chemoluminescence (ECL) detection. […] Antibodies were incubated for either 1-2 h at room temperature or overnight at 4° C. […] Protein-antibody complexes were then visualized by chemiluminescence (Pierce Chemical Co) or fluorescence (Odyssey) according to the manufacturer's instructions. The experiments were performed three times.

[2] = tested on: acetylation of tubulin and induction of Hsp 70 in A2780 ovarian carcinoma cells; test: Acetylation of tubulin and induction of Hsp 70 (Western blot, HDAC 6 readout); assay type: cell-based, human; details: 24 h, 0-3000 nM tested
Description: Total cell lysates were prepared and analysed by SDS-PAGE. […] Hsp 70 protein was detected with an antibody from Stressgen (Cat. nr. SPA-810), followed by ECL detection. Appropriate dilutions of antibodies were incubated for either 1-2 h at room temperature or overnight at 4° C. In order to control for equal loading, blots were stripped and re-probed with mouse monoclonal anti-actin IgM (Ab-1, Oncogene Research Products). […] Protein-antibody complexes were then visualized by chemiluminescence (Pierce Chemical Co) or fluorescence (Odyssey) according to the manufacturer's instructions. The experiments were performed three times.

ARH-77 = details: ARH-77, myeloma; 72 hr, MTS
Description: (§1) Tumor cells were grown as cell suspension in the corresponding appropriate culture medium at 37° C. in a humidified 5% CO2 incubator. Mycoplasma-free tumor cells were seeded in 96-well flat-bottom microtitration plates and incubated at 37° C. for 24 hr in culture medium containing 10% FCS. […] Cells were then incubated for an additional 72 hr.

BV-173 = details: BV-173, chronic B cell leukemia; 72 hr, MTS
Description: as §1

Namalwa = details: Burkitt's lymphoma, 72 hr, MTS
Description: as §1

KCL-22 = details: KCL-22, chronic myeloid leukemia; 72 hr, MTS
Description: as §1

KG-1 = details: KG-1, acute myelogenous leukemia; 72 hr, MTS
Description: as §1

Raji = details: Burkitt's lymphoma, 72 hr, MTS
Description: as §1

Jurkat clone E6-1 = details: Jurkat clone E6-1, acute lymphoblastic leukemia; 72 hr, MTS
Description: as §1

RPMI 8226 = details: RPMI 8226, myeloma; 72 hr, MTS
Description: as §1

SUP-B15 = details: SUP-B15, acute lymphoblastic leukemia; 72 hr, MTS
Description: as §1

U-937 = details: U-937, lymphoma; 72 hr, MTS
Description: as §1

EHEB = details: chronic B cell leukemia, 72 hr, MTS
Description: as §1

Daudi = details: Burkitt's lymphoma, 72 hr, MTS
Description: as §1

MOLT-4 = details: MOLT-4, acute lymphoblastic leukemia; 72 hr, MTS
Description: as §1

CCRF-CEM = details: acute lymphoblastic leukemia, 72 hr, MTS
Description: as §1

K-562 = details: K-562, chronic myeloid leukemia; 72 hr, MTS
Description: as §1

THP-1 = details: THP-1, acute monocytic leukemia; 72 hr, MTS
Description: as §1

OCI-AML2 = details: OCI-AML2, acute myeloid leukemia; 72 hr, MTS
Description: as §1

LAMA-84 = details: LAMA-84, chronic myeloid leukemia in blast crisis; 72 hr, MTS
Description: as §1

HL-60 = details: HL-60, acute promyelocytic leukemia; 72 hr, MTS
Description: as §1

Ramos = details: Burkitt's lymphoma, 72 hr, MTS
Description: as §1

[3] = tested on: p21waf1,cip1 deficient cells as compared to the parental HCT-116 cells; details: p21waf1,cip1 deficient cells vs parental HCT-116 cells; cited from earlier work

Cn1cc(CNCC2CCN(c3ncc(C(=O)NO)cn3)CC2)c2ccccc21 [JNJ 26481585]
concentration when induction of acetylation of histone H3 and H4 and induction of p21waf1,cip1 is observed [1]: 10 nM
concentration when start of induction of acetylation of tubulin and induction of Hsp 70 is observed [2]: 30 nM

O=C(NO)c1cnc(N2CCN(S(=O)(=O)c3ccc4ccccc4c3)CC2)nc1 [R306465]
mean IC40 (concentration required to reach 40% inhibition of cell proliferation) (ARH-77): 207.27 nM
mean IC40 (concentration required to reach 40% inhibition of cell proliferation) (BV-173): 26.33 nM
mean IC40 (concentration required to reach 40% inhibition of cell proliferation) (Namalwa): 49.25 nM
mean IC40 (concentration required to reach 40% inhibition of cell proliferation) (KCL-22): 89.88 nM
mean IC40 (concentration required to reach 40% inhibition of cell proliferation) (KG-1): 170.59 nM
mean IC40 (concentration required to reach 40% inhibition of cell proliferation) (Raji): 221.09 nM
mean IC40 (concentration required to reach 40% inhibition of cell proliferation) (Jurkat clone E6-1): 56.19 nM
mean IC40 (concentration required to reach 40% inhibition of cell proliferation) (RPMI 8226): 37.59 nM
mean IC40 (concentration required to reach 40% inhibition of cell proliferation) (SUP-B15): 15.67 nM
mean IC40 (concentration required to reach 40% inhibition of cell proliferation) (U-937): 154.68 nM
mean IC40 (concentration required to reach 40% inhibition of cell proliferation) (EHEB): 486.62 nM
mean IC40 (concentration required to reach 40% inhibition of cell proliferation) (Daudi): 454.11 nM
mean IC40 (concentration required to reach 40% inhibition of cell proliferation) (MOLT-4): 155.83 nM
mean IC40 (concentration required to reach 40% inhibition of cell proliferation) (CCRF-CEM): 78.79 nM
mean IC40 (concentration required to reach 40% inhibition of cell proliferation) (K-562): 80.76 nM
mean IC40 (concentration required to reach 40% inhibition of cell proliferation) (THP-1): 446.29 nM
concentration when induction of acetylation of histone H3 and H4 and induction of p21waf1,cip1 is observed [1]: 100 nM
mean IC40 (concentration required to reach 40% inhibition of cell proliferation) (OCI-AML2): 267.92 nM
mean IC40 (concentration required to reach 40% inhibition of cell proliferation) (LAMA-84): 165.89 nM
mean IC40 (concentration required to reach 40% inhibition of cell proliferation) (HL-60): 86.76 nM
mean IC40 (concentration required to reach 40% inhibition of cell proliferation) (Ramos): 66.08 nM
concentration when start of induction of acetylation of tubulin and induction of Hsp 70 is observed [2]: 1000 nM

O=C(CCCCCCC(=O)Nc1ccccc1)NO [SAHA, suberoylanilide hydroxamic acid]
concentration when induction of acetylation of histone H3 and H4 and induction of p21waf1,cip1 is observed [1]: 3000 nM
concentration when start of induction of acetylation of tubulin and induction of Hsp 70 is observed [2]: 100 nM

CC(/C=C/C(=O)NO)=C\[C@@H](C)C(=O)c1ccc(N(C)C)cc1 [trichostatin A]
increase in resistance to the HDAC inhibitor [3]: 6 fold
